# Source: patent publication US10160753B2, “Indazole compounds as IRAK4 inhibitors” (Aurigene Discovery Technologies Limited, priority 2014, dated 2018)
# Where a name gives a salt, the structure may show the parent alone.
# Target: T1, recombinant IRAK-4 kinase (Homo sapiens, UniProt Q9NWZ3)
# T1 construct: purchased Millipore, USA
# T1 sequence (Q9NWZ3 1-460): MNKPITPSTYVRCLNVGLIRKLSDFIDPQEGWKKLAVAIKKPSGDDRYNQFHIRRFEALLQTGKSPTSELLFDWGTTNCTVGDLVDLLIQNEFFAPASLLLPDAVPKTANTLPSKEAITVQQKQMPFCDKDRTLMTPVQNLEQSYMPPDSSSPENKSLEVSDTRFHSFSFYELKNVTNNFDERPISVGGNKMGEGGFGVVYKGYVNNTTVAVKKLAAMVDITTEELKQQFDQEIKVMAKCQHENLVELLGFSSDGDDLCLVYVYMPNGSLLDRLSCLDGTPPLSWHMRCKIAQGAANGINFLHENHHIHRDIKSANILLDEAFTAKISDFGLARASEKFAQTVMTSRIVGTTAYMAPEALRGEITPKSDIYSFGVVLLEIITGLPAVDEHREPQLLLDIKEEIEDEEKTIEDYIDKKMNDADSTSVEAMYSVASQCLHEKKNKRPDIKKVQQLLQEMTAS
# Assay: IRAK-4 Biochemical Assay (TR-FRET)
# Settings: 30 min pre-incubation, 100 nM Biotin Histone H3, 20 μM ATP, read-out: IC50 values for IRAK4 activity
# Protocol: Compounds were tested for their potential to inhibit IRAK-4 enzyme in a TR-FRET assay using recombinant IRAK-4 kinase from Millipore, USA. The assay buffer was 50 mM Tris-HCl pH 7.5, 20 mM MgCl2, 1 mM EGTA, 2 mM DTT, 3 mM MnCl2 and 0.01% Tween 20.5 ng of IRAK-4 kinase was used for the assay. After pre-incubation of enzyme with test compound for 30 minutes at room temperature, a substrate mixture containing 100 nM Biotin Histone H3 (Millipore, USA) and 20 μM ATP (Sigma, USA) was added and the reaction was incubated for 30 min. Post incubation, the reaction was stopped by the addition of stop mix containing 40 mM EDTA, 1 nM of Europium-Anti-Phospho-Histone H3 (Ser10) antibody (Perkin Elmer, USA) and 20 nM SureLight Allophycocyanin-Streptavidin (Perkin Elmer, USA). The fluorescence emission at 615 nm and 665 nm were measured at an excitation of 340 nm and the percent inhibition was estimated from the ratio of the fluorescence intensities [(F665/F615)×10000]. The compounds were initially screened at 1 μM and 10 μM concentrations and potent compounds (>50% inhibition at 1 μM) were taken for dose response studies. The IC50 values were estimated by fitting the dose-response data to sigmoidal dose response (variable slope), curve fitting program using Graphpad Prism software Version 6.01.
row,SMILES,IC50 [µM]
1,"COc1ccc(-c2nc(C(=O)Nc3cc4cn(C5CCCC5)nc4cc3C3CC3)co2)cn1 [Example 20, N-(2-cyclopentyl-6-cyclopropyl-2H-indazol-5-yl)-2-(6-methoxypyridin-3-yl)oxazole-4-carboxamide]",< 0.05
2,"COCCn1cc2cc(NC(=O)c3coc(-c4ccnc(C)c4)n3)c(N3CCC(N)CC3)cc2n1 [Example 118, N-(6-(4-aminopiperidin-1-yl)-2-(2-methoxyethyl)-2H-indazol-5-yl)-2-(2-methylpyridin-4-yl)oxazole-4-carboxamide hydrochloride]",< 0.05
3,"Cc1cc(-c2nc(C(=O)Nc3cc4cnn(C)c4cc3N3CCC(O)CC3)co2)cc(C)n1 [Example 114, 2-(2,6-dimethylpyridin-4-yl)-N-(6-(4-hydroxypiperidin-1-yl)-1-methyl-1H-indazol-5-yl)oxazole-4-carboxamide]",< 0.05
4,"Cc1ccc(-c2nc(C(=O)Nc3cc4cn(C5CCCC5)nc4cc3C3CC3)co2)cn1 [Example 28, N-(2-cyclopentyl-6-cyclopropyl-2H-indazol-5-yl)-2-(6-methylpyridin-3-yl)oxazole-4-carboxamide]",< 0.05
5,"Cn1cc(-c2cccc(C(=O)Nc3cc4cnn(C5CCCC5)c4cc3C3CC3)n2)cn1 [Example 17, N-(1-cyclopentyl-6-cyclopropyl-1H-indazol-5-yl)-6-(1-methyl-1H-pyrazol-4-yl)picolinamide]",> 0.1
6,"Cc1cnccc1-c1nc(C(=O)Nc2cc3cn(C)nc3cc2N2CCCCC2)co1 [Example 22, N-(2-methyl-6-(piperidin-1-yl)-2H-indazol-5-yl)-2-(3-methylpyridin-4-yl)oxazole-4-carboxamide]",< 0.05
7,"Cc1cc(-c2nc(C(=O)Nc3cc4cn(C)nc4cc3N3CCCCCC3)co2)ccn1 [Example 71, N-(6-(azepan-1-yl)-2-methyl-2H-indazol-5-yl)-2-(2-methylpyridin-4-yl)oxazole-4-carboxamide]",< 0.05
8,"Cc1cc(-c2nc(C(=O)Nc3cc4cn(C5CCCC5)nc4cc3N3CCOCC3)co2)ccn1 [Example 8, N-(2-cyclopentyl-6-morpholino-2H-indazol-5-yl)-2-(2-methylpyridin-4-yl) oxazole-4-carboxamide]",< 0.05
9,"Cc1cc(-c2nc(C(=O)Nc3cc4cnn(CCO)c4cc3N3CCC(O)CC3)co2)ccn1 [Example 117, N-(1-(2-hydroxyethyl)-6-(4-hydroxypiperidin-1-yl)-1H-indazol-5-yl)-2-(2-methylpyridin-4-yl)oxazole-4-carboxamide]",< 0.05
10,"CCOP(=O)(OCC)OCC1CCN(c2cc3nn(C)cc3cc2NC(=O)c2coc(-c3ccnc(C)c3)n2)CC1 [Example 129, Diethyl ((1-(2-methyl-5-(2-(2-methylpyridin-4-yl)oxazole-4-carboxamido)-2H-indazol-6-yl)piperidin-4-yl)methyl) phosphate]",< 0.05
11,"Cc1cc(-c2nc(C(=O)Nc3cc4cnn(C)c4cc3N3CCC(F)CC3)co2)ccn1 [Example 78, N-(6-(4-fluoropiperidin-1-yl)-1-methyl-1H-indazol-5-yl)-2-(2-methylpyridin-4-yl)oxazole-4-carboxamide]",< 0.05
12,"C[C@H](O)Cn1cc(-c2cccc(C(=O)Nc3cc4cn(C)nc4cc3N3CCCCC3)n2)cn1 [Example 34, (S)-6-(1-(2-hydroxypropyl)-1H-pyrazol-4-yl)-N-(2-methyl-6-(piperidin-1-yl)-2H-indazol-5-yl)picolinamide]",< 0.05
13,"Cc1cc(-c2ccc(C(=O)Nc3cc4cn(C)nc4cc3N3CCC(O)CC3)o2)ccn1 [Example 67, N-(6-(4-hydroxypiperidin-1-yl)-2-methyl-2H-indazol-5-yl)-5-(2-methylpyridin-4-yl)furan-2-carboxamide]",< 0.05
14,"Cn1cc2cc(NC(=O)c3coc(N4CC[C@H](N)C4)n3)c(N3CCCCC3)cc2n1 [Example 44, (S)-2-(3-aminopyrrolidin-1-yl)-N-(2-methyl-6-(piperidin-1-yl)-2H-indazol-5-yl)oxazole-4-carboxamide]",< 0.05
15,"Cc1cc(-c2nc(C(=O)Nc3cc4cn(C)nc4cc3C3CCCCC3)co2)ccn1 [Example 11, N-(6-cyclohexyl-2-methyl-2H-indazol-5-yl)-2-(2-methylpyridin-4-yl)oxazole-4-carboxamide hydrochloride]",< 0.05
16,"C[C@H](O)Cn1cc(-c2cccc(C(=O)Nc3cc4cnn(C)c4cc3N3CCC(CO)CC3)n2)cn1 [Example 95, (S)—N-(6-(4-(hydroxymethyl)piperidin-1-yl)-1-methyl-1H-indazol-5-yl)-6-(1-(2-hydroxypropyl)-1H-pyrazol-4-yl)picolinamide]",> 0.1

# More lines, now with the values ahead:
row,IC50 [µM],SMILES
1,< 0.05,"Cn1cc2cc(NC(=O)c3cccc(N4CCC(O)C4)n3)c(N3CCCCC3)cc2n1 (stereo not drawn) [Example 40, 6-(3-hydroxypyrrolidin-1-yl)-N-(2-methyl-6-(piperidin-1-yl)-2H-indazol-5-yl)picolinamide]"
2,< 0.05,"COc1cc(-c2nc(C(=O)Nc3cc4cnn(C)c4cc3N3CCC(O)CC3)co2)ccn1 [Example 101, N-(6-(4-hydroxypiperidin-1-yl)-1-methyl-1H-indazol-5-yl)-2-(2-methoxypyridin-4-yl)oxazole-4-carboxamide]"
3,< 0.05,"Cc1cc(-c2nc(C(=O)Nc3cc4cn(C)nc4cc3N[C@H]3CC[C@H](O)CC3)co2)ccn1 [Example 88, N-(6-(((1R,4R)-4-hydroxycyclohexyl)amino)-2-methyl-2H-indazol-5-yl)-2-(2-methylpyridin-4-yl)oxazole-4-carboxamide]"
4,< 0.05,"Cn1cc2cc(NC(=O)c3coc(-c4cccnc4O)n3)c(N3CCCCC3)cc2n1 [Example 32, 2-(2-hydroxypyridin-3-yl)-N-(2-methyl-6-(piperidin-1-yl)-2H-indazol-5-yl)oxazole-4-carboxamide]"
5,< 0.05,"Cn1cc2cc(NC(=O)c3coc(-c4ccnc(NS(C)(=O)=O)c4)n3)c(N3CCC(O)CC3)cc2n1 [Example 123, N-(6-(4-hydroxypiperidin-1-yl)-2-methyl-2H-indazol-5-yl)-2-(2-(methylsulfonamido)pyridin-4-yl) oxazole-4-carboxamide]"
6,> 0.1,"Cn1ncc2cc(NC(=O)c3cccc(N4CC[C@H](O)C4)n3)c(C3CC3)cc21 [Example 37, (S)—N-(6-cyclopropyl-1-methyl-1H-indazol-5-yl)-6-(3-hydroxypyrrolidin-1-yl)picolinamide]"
7,< 0.05,"Cn1cc2cc(NC(=O)c3coc(N4CC[C@H](O)C4)n3)c(N3CCCCC3)cc2n1 [Example 52, (S)-2-(3-hydroxypyrrolidin-1-yl)-N-(2-methyl-6-(piperidin-1-yl)-2H-indazol-5-yl)oxazole-4-carboxamide]"
8,< 0.05,"COCCn1cc2cc(NC(=O)c3coc(-c4ccnc(C)c4)n3)c(N3CCC(O)CC3)cc2n1 [Example 76, N-(6-(4-hydroxypiperidin-1-yl)-2-(2-methoxyethyl)-2H-indazol-5-yl)-2-(2-methylpyridin-4-yl)oxazole-4-carboxamide]"
9,< 0.05,"Cc1cc(-c2nc(C(=O)Nc3cc4c(C)n(C)nc4cc3N3CCCCC3)co2)ccn1 [Example 73, N-(2,3-dimethyl-6-(piperidin-1-yl)-2H-indazol-5-yl)-2-(2-methylpyridin-4-yl)oxazole-4-carboxamide]"
10,< 0.05,"C[C@@H](O)Cn1cc(-c2cccc(C(=O)Nc3cc4cn(C)nc4cc3N3CCCCC3)n2)cn1 [Example 43, (R)-6-(1-(2-hydroxypropyl)-1H-pyrazol-4-yl)-N-(2-methyl-6-(piperidin-1-yl)-2H-indazol-5-yl)picolinamide]"
11,< 0.05,"Cc1cc(-c2nc(C(=O)Nc3cc4cnn(C)c4cc3N3CC[C@H](O)C3)co2)ccn1 [Example 115, (S)—N-(6-(3-hydroxypyrrolidin-1-yl)-1-methyl-1H-indazol-5-yl)-2-(2-methylpyridin-4-yl)oxazole-4-carboxamide]"
12,< 0.05,"Cc1cc(-c2nc(C(=O)Nc3cc4cn(C)nc4cc3N3CCC(O)CC3)co2)ccn1 [Example 58, N-(6-(4-hydroxypiperidin-1-yl)-2-methyl-2H-indazol-5-yl)-2-(2-methylpyridin-4-yl)oxazole-4-carboxamide]"
13,< 0.05,"Cn1cc(-c2cccc(C(=O)Nc3cc4cn(C5CCCC5)nc4cc3C3CC3)n2)cn1 [Example 18, N-(2-cyclopentyl-6-cyclopropyl-2H-indazol-5-yl)-6-(1-methyl-1H-pyrazol-4-yl)picolinamide]"
14,< 0.05,"Cc1cc(-c2nc(C(=O)Nc3cc4c(C)nn(C)c4cc3N3CCC(CO)CC3)co2)ccn1 [Example 111, N-(6-(4-(hydroxymethyl)piperidin-1-yl)-1,3-dimethyl-1H-indazol-5-yl)-2-(2-methylpyridin-4-yl)oxazole-4-carboxamide]"
